From US20110318375A1, “Immunomodulatory Therapeutic Agents” (priority 2009, published 2011)
Entries after “also recorded” stand apart in the source; their conditions may differ. No end group written: not given here. PEG = not defined here

What was measured:
[1] = system: Experimental Allergic Encephalomyelitis (EAE); experiment: Acute Experimental Allergic Encephalomyelitis mouse model; type: in vivo, mice; conditions: subcutaneous, dosed daily, every 3 days and weekly
Description: The carboxy terminus of activated Fibrinopeptide A was considered to be the active portion of the peptide, the carboxy terminus was PEGylate (addition of Poly Ethylene Glycol). This molecule was used to perform an EAE study. This study was designed to mimic the study done by Ruhenstroth-Bauer in 1981 utilizing two of these peptides, and showing some albeit mild benefit. The synthetic PEGylated peptide was expected to perform considerably better than the non-PEGylated peptide. Synthetic non-PEGylated peptide A was used as a positive control to compare the PEGylated verses non-PEGylated peptides. The medications were administered subcutaneously, due to this route having some efficacy in the cytokine profiles.
Test article 2 (PEGylated peptide) dosed daily, every 3 days and weekly never even approached statistically significant benefit.
During the first 22 days of the study EAE development in mice treated with test article 1 (daily non-PEGylated peptide A) was very similar to the vehicle-treated mice. […] Disease worsened in test article 1-treated mice on days 27 and 28 and became very similar to disease severity to the mice in the vehicle-treated group.

Ponto Toro Virus = type: in vivo, mice; conditions: mouse, in vivo
cytokine panels = experiment: Cytokine panels for 24 hours after synthetic imf-C3, healthy volunteer; type: in vivo, human; conditions: followed for 24 hours
Protocol: After getting back the results of the Ponto Toro test and seeing no results from imf-C3, a healthy volunteer was given synthetic imf-C3 and cytokine panels were followed for 24 hours.

Row | Substance | EAE development / activity versus vehicle-treated mice [1] | EAE development / activity versus vehicle-treated mice ([1]; listed as PEGylated Fibrinopeptide A) | results of the Ponto Toro test (Ponto Toro Virus) | changes in cytokine panels (cytokine panels)
1 | PEGylated peptide: activated Fibrinopeptide A with Poly Ethylene Glycol added to the carboxy terminus (ADSGEGDFLAEGGGVR-{PEG}; reading uncertain; UniProt P02671 20-35, looked up) | little or no response; also recorded: no activity | decrease any measurable activity | – | –
2 | SEETKENERFTV [imf-C3] | – | – | no results | did not demonstrate in any changes
